The results in this text go back to US6518308B2, “Compositions for adhesion prevention” (priority 2000, dated 2003).

Assay [1] in a line: animal adhesion study, monitoring of serum alanine and lactate. The assay is classed as in vivo, rat or rabbit. The settings on record: in the presence of dichloroacetic acid, intravenous injection or slow release. On the procedure: An animal adhesion study to evaluate the effectiveness of the pharmaceutical compositions described previously is conducted using a standardized animal model, such as a model of cecal abrasion in the rat or an oravian bisection in the rabbit.
The animals undergo lesioning by a surgeon unaware of group assignment, with necropsy performed one to two weeks later as is standard for that particular animal model.
The animals are randomized in a placebo control group and a group using dichloroacetic acid. The treatment begins preoperatively, and continues for five days after surgery. Dichloroacetic acid is administered by intravenous injection, or by slow release from a delivery agent, and is left in the peritoneal cavity following surgery. The maintenance of adequate amounts of dichloroacetic acid can be monitored by the measurement of serum alanine and lactate, which is reduced in the presence of dichloroacetic acid. Necropsy is performed on the animals, and adhesions are scored. Studies are completed on a total of 30 animals in each group in at least three settings.

Assay [2] relates to human mesothelial cells or human fibroblasts. Nature of the assay: cell cultures under hypoxic conditions, production of inflammatory cytokines and growth factors. The assay is classed as cell-based. The settings on record: human mesothelial cells or human fibroblasts cultured under hypoxic conditions, presence vs absence of dichloroacetic acid. The protocol: Similarly, cell cultures using human mesothelial cells or human fibroblasts are cultured under hypoxic conditions in the presence and absence of dichloroacetic acid. The production of inflammatory cytokines and growth factors is measured, and found to be reduced in the presence of dichloroacetic acid. These growth factors, such as IL-1 and TGF-β, are believed to be associated with adhesion development.

For the compound `O=C(O)C(Cl)Cl` [dichloroacetic acid], the “serum alanine and lactate” value in assay [1] was “reduced”. Moreover, in assay [2], the “production of inflammatory cytokines and growth factors (such as IL-1 and TGF-β)” value was “reduced”.
